Results from the NIST ThermoML archive (doi:10.1016/j.jct.2014.05.014).

Test: refractive index (Na D-line) (dimensionless); cn = amount concentration of the nth substance listed, in mol/dm3
Conditions: 101.3 kPa, Liquid, Standard Abbe refractometry

CC(N)C(=O)[O-].[K+] (stereo not drawn) [potassium DL-alaninate] + O
refractive index
Conditions	303.15 K	308.15 K	313.15 K	318.15 K	323.15 K	328.15 K	333.15 K	338.15 K	343.15 K
c1 = 0.526	1.3409	1.34021	1.33947	1.33867	1.33782	1.33692	1.33599	1.335	1.33402
c1 = 1.009	1.34955	1.3488	1.34802	1.3472	1.34634	1.34542	1.34446	1.34349	1.34248
c1 = 1.501	1.35822	1.35743	1.35661	1.35576	1.35486	1.35394	1.35299	1.352	1.35098
c1 = 2.005	1.36647	1.36566	1.36481	1.36391	1.363	1.36206	1.3611	1.3601	1.3591
c1 = 2.501	1.37461	1.37375	1.37285	1.37195	1.37103	1.37004	1.36904	1.36803	1.36701
c1 = 2.986	1.38281	1.38192	1.38098	1.38002	1.37908	1.37809	1.3771	1.3761	1.37507
c1 = 3.498	1.39058	1.38964	1.3887	1.38775	1.38677	1.38576	1.38471	1.38364	1.38259

CC(N)C(=O)[O-].[Na+] (stereo not drawn) [sodium DL-alaninate] + O
refractive index
Conditions	303.15 K	308.15 K	313.15 K	318.15 K	323.15 K	328.15 K	333.15 K	338.15 K	343.15 K
c1 = 0.498	1.3409	1.34021	1.33945	1.33864	1.33778	1.33688	1.33592	1.3349	1.33388
c1 = 0.99	1.34952	1.34876	1.34796	1.34712	1.34624	1.34528	1.34432	1.34333	1.34232
c1 = 1.485	1.35799	1.35719	1.35636	1.35547	1.35455	1.35358	1.35259	1.35156	1.35053
c1 = 1.983	1.3663	1.36544	1.36454	1.36361	1.36264	1.36164	1.36061	1.35958	1.35853
c1 = 2.476	1.37433	1.37341	1.37246	1.37149	1.37049	1.36949	1.36845	1.36735	1.36627
c1 = 3.063	1.38382	1.38284	1.3818	1.38074	1.3797	1.37866	1.37755	1.37643	1.37534
